Patent US9458135B2, “Dihydroquinoline-2-one derivatives” (Hoffmann-La Roche Inc., priority 2014, dated 2016)

What was measured:
[1] = system: patients with primary aldosteronism; settings: cited from earlier work
[2] = system: rat model of chronic kidney disease; settings: cited from earlier work; for plasma aldosterone: FAD286 following 4 weeks of treatment, spironolactone at 4 and 8 weeks; for renal effects (albuminuria, azotemia, renovascular hypertrophy, glomerular injury, PAI-1 and osteopontin mRNA, tubulointerstitial fibrosis): angiotensin II and high salt treatment
[3] = system: rats with experimental heart failure; settings: cited from earlier work
human CYP11B1 = human CYP11B1 (Homo sapiens (Human), UniProt P15538); assay: G-402 cellular enzyme assay, human CYP11B1 (cortisol release, HTRF); format: cell-based; settings: G-402 cells expressing human CYP11B1; 1 μM Deoxycortisol
From the text: (§1) Herein we identified the use of the G-402 cell line as a host cell to ectopically express (transiently or stably) enzymes of the CYP11 family. Specifically we developed stable G-402 cells expressing ectopically human CYP11B1, human CYP11B2, human CYP11A1, cynmolgus CYP11B1 or cynomolgus CYP11B2 enzyme activity. Importantly the identified cell line G-402 expresses co-factors (adrenodoxin and adrenodoxin reductase) important for the activity of the CYP11 family and no relevant enzyme activity of the CYP11 family (in comparison to H295R cells) was detected in these cells. Therefore the G-402 cell line is uniquely suited as a host cell for the ectopic expression of enzymes from the CYP11 family.
(§2) The expression plasmids contains the ORF for either huma/cyno CYP11B1 or CYP11B2 under the control of a suitable promoter (CMV-promoter) and a suitable resistance marker (neomycin). Using standard techniques the expression plasmid is transfected into G-402 cells and these cells are then selected for expressing the given resistance markers. Individual cell-clones are then selected and assessed for displaying the desired enzymatic activity using 11-Deoxycorticosterone (Cyp11B2) or 11-Deoxycortisol (Cyp11B1) as a substrate.
(§3) G-402 cells expressing CYP11 constructs were established as described above and maintained in McCoy's 5a Medium Modified, ATCC Catalog No. 30-2007 containing 10% FCS and 400 μg/ml G418 (Geneticin) at 37° C. under an atmosphere of 5% CO2/95% air. Cellular enzyme assays were performed in DMEM/F12 medium containing 2.5% charcoal treated FCS and appropriate concentration of substrate (0.3-10 uM 11-Deoxycorticosterone, 11-Deoxycortisol or Corticosterone). For assaying enzymatic activity, cells were plated onto 96 well plates and incubated for 16 h. An aliquot of the supernatant is then transferred and analyzed for the concentration of the expected product (Aldosterone for CYP11B2; Cortisol for CYP11B1). The concentrations of these steroids can be determined using HTRF assays from CisBio analyzing either Aldosterone or Cortisol.
(§4) Inhibition of the release of produced steroids can be used as a measure of the respective enzyme inhibition by test compounds added during the cellular enzyme assay. The dose dependent inhibition of enzymatic activity by a compound is calculated by means of plotting added inhibitor concentrations (x-axes) vs. measured steroid/product level (y-axes). The inhibition is then calculated by fitting the following 4-parameter sigmoidal function (Morgan-Mercer-Flodin (MMF) model) to the raw data points using the least squares method:
(§5) [formula] wherein, A is the maximum y value, B is the EC50 factor determined using XLFit, C is the minimum y value and D is the slope value.
(§6) EC50 values for compounds claimed herein were tested with the G402-based assay system described. Cyp11B2 enzyme activity was tested in presence of 1 μM Deoxycorticosterone and variable amounts of inhibitors; Cyp11B1 enzyme activity was tested in presence of 1 μM Deoxycortisol and variable amounts of inhibitors.

human CYP11B2 = human CYP11B2 (Homo sapiens (Human), UniProt P19099); assay: G-402 cellular enzyme assay, human CYP11B2 (aldosterone release, HTRF); format: cell-based; settings: G-402 cells expressing human CYP11B2; 1 μM Deoxycorticosterone
From the text: as §1, §2, §3, §4, §5, §6

human CYP11B2, sequence (P19099 25-503): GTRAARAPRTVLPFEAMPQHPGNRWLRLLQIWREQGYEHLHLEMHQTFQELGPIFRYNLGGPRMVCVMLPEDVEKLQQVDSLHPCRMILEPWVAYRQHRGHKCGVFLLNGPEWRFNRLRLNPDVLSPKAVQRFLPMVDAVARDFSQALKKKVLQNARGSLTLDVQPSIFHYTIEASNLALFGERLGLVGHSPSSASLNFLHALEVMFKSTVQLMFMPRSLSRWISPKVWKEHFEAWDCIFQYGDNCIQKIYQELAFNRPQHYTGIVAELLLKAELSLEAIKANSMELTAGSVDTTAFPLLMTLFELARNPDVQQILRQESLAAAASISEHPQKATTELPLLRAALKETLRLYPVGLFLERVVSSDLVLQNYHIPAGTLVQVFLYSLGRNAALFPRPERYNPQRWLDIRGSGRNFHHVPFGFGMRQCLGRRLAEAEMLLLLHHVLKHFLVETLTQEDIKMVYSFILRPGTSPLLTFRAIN
human CYP11B1, sequence (P15538 25-503): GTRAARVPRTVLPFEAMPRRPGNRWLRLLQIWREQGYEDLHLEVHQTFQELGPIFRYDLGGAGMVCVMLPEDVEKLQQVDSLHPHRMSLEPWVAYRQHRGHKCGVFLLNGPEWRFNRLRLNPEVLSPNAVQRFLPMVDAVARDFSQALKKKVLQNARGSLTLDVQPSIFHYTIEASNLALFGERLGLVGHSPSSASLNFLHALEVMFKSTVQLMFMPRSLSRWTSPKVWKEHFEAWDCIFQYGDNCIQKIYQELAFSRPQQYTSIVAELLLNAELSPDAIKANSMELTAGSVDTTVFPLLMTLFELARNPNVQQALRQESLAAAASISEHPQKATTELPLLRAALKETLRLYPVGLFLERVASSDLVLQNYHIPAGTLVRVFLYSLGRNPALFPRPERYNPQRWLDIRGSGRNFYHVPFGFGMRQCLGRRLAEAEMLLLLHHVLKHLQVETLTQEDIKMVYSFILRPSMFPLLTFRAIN

| EC50 (human CYP11B1) | EC50 (human CYP11B2) | SMILES | plasma aldosterone [2] | renal effects (albuminuria, azotemia, renovascular hypertrophy, glomerular injury, PAI-1 and osteopontin mRNA, tubulointerstitial fibrosis) [2] | angiotensin II and salt-stimulated PAI-1 mRNA expression in the aorta and the heart [2] | also measured |
| --- | --- | --- | --- | --- | --- | --- |
| – | – | N#Cc1ccc([C@H]2CCc3cncn32)c(F)c1 [LCI699] | – | – | – | selectivity (effects on the glucocorticoid axis) [1]: poor selectivity; blood pressure ([1]; oral): mildly decreased; circulating aldosterone levels ([1]; oral): significantly lower; hypokalemia ([1]; oral): corrected |
| – | – | CC(=O)S[C@@H]1CC2=CC(=O)CC[C@]2(C)[C@H]2CC[C@@]3(C)[C@@H](CC[C@@]34CCC(=O)O4)[C@H]12 [spironolactone] | increased | prevented these renal effects | enhanced | – |
| – | – | N#Cc1ccc([C@H]2CCCc3cncn32)cc1 [FAD286] | reduced | prevented these renal effects | not | blood pressure and cardiovascular function and structure [3]: improved; kidney function and morphology [3]: improve |
| 72.8 nM | 2.3 nM | CN1C(=O)CCc2cc(-c3cncc(COc4ncccc4C(F)(F)F)c3)ccc21 [Example 8, 1-Methyl-6-[5-(3-trifluoromethyl-pyridin-2-yloxymethyl)-pyridin-3-yl]-3,4-dihydro-1H-quinolin-2-one] | – | – | – | – |
| 0.1 nM | 0.012 nM | Cc1cccc(SCc2cncc(-c3ccc4c(c3)CCC(=O)N4C)c2)n1 [Example 14, 1-Methyl-6-[5-(6-methyl-pyridin-2-ylsulfanylmethyl)-pyridin-3-yl]-3,4-dihydro-1H-quinolin-2-one] | – | – | – | – |
